What was measured:
chicken embryos = details: cited from earlier work
[1] = Observation of gastric mucosa after oral dosing of normal rats; details: rat, in vivo
Excerpt: It was therefore assumed that a massive dose of citral or lemongrass oil which contains citral as its principal constituent would adversely affect normal cells. • (2) Instead of dosing lemongrass oil directly to normal rats, lemongrass oil or citral in β-cyclodextrin clathrates was mixed with feed.

platelet aggregation = test: Suppression of platelet aggregation; details: substance per se
sarcoma 180 = details: oral administration to mice bearing sarcoma 180; cited from earlier work

CC(C)=CCCC(C)=CC=O [Citral, citral]
teratogenicity (chicken embryos): teratogenic | findings on the gastric mucosa [1]: petechiae were observed on the gastric mucosa | platelet aggregation (platelet aggregation): strongly suppresses | growth of cancer cells (sarcoma 180): suppresses growth of cancer cells

Source: patent EP0393973A1, “Antitumor Agent Indicated for lung cancer” (priority 1989, dated 1990)
